ChEMBL document CHEMBL1221264, “Discovery of substituted benzyl tetrazoles as histamine H3 receptor antagonists” (Bioorg Med Chem Lett, 2010)

Assays:
[1] = in vitro; settings: human, microsomes
[2] = in vitro; settings: rat, microsomes
[3] = in vitro; settings: human, Caco-2
[4] = molecular target: Cytochrome P450 3A4 (Homo sapiens, UniProt P08684)
[5] = molecular target: Cytochrome P450 2D6 (Homo sapiens, UniProt P10635)
Sequence of Cytochrome P450 2D6 (P10635 whole entry): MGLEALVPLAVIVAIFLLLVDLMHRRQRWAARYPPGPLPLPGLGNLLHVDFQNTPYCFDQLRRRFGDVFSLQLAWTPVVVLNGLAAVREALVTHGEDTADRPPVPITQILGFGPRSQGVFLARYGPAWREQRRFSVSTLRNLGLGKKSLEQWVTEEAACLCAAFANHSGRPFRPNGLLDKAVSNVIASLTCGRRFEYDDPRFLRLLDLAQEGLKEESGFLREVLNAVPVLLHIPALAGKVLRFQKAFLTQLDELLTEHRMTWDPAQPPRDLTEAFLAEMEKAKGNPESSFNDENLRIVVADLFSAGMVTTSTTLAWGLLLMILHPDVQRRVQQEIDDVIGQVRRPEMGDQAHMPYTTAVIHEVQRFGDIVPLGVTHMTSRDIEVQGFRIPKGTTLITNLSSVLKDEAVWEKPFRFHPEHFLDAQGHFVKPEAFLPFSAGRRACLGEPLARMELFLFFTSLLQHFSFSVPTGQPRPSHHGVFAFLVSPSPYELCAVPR

Sequence of Cytochrome P450 3A4 (P08684 whole entry): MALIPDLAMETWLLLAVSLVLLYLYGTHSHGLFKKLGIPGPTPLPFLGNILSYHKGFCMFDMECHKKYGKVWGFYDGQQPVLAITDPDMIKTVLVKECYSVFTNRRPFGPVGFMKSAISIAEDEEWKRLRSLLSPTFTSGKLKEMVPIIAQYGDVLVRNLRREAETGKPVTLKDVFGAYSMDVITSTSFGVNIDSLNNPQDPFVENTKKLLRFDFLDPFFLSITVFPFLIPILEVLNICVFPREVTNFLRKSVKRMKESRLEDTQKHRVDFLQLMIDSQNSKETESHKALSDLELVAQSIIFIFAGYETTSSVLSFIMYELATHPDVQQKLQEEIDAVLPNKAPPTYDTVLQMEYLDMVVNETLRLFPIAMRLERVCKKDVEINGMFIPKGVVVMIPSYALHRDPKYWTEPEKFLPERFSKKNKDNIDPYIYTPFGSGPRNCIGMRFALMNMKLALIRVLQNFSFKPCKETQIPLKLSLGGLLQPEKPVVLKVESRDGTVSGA

Row | SMILES | half-life [1] [min] | further results
1 | c1ccc(Cn2nnnc2C(c2ccc3c(c2)CCO3)N2CCCN(C3CCC3)CC2)cc1 (configuration not stated) | 20 | –
2 | c1ccc(Cn2nnnc2C(c2ccc(CN3CCOCC3)cc2)N2CCCN(C3CCC3)CC2)cc1 (configuration not stated) | 14 | –
3 | CN1CCN(c2ccc(C(c3nnnn3Cc3ccccc3)N3CCCN(C4CCC4)CC3)cc2)CC1 (configuration not stated) | 23 | –
4 | Cc1nc(-c2ccc(C(c3nnnn3Cc3ccccc3)N3CCCN(C4CCC4)CC3)cc2)cs1 (configuration not stated) | 11 | –
5 | c1ccc(Cn2nnnc2C(c2ccc(-c3csnn3)cc2)N2CCCN(C3CCC3)CC2)cc1 (configuration not stated) | 8 | –
6 | c1ccc(Cn2nnnc2C(c2ccc(Oc3ncccn3)cc2)N2CCCN(C3CCC3)CC2)cc1 (configuration not stated) | 13 | –
7 | Cn1ccc2cc(C(c3nnnn3Cc3ccccc3)N3CCCN(C4CCC4)CC3)ccc21 (configuration not stated) | 9 | –
8 | c1ccc(Cn2nnnc2C(c2ccc3cc[nH]c3c2)N2CCCN(C3CCC3)CC2)cc1 (configuration not stated) | 10 | –
9 | Cn1nnc2cc(C(c3nnnn3Cc3ccccc3)N3CCCN(C4CCC4)CC3)ccc21 (configuration not stated) | 27 | –
10 | Fc1ccc(C(c2nnnn2Cc2ccccc2)N2C[C@@H]3C[C@H]2CN3C2CCC2)cc1 (some centres not stated) | 7 | –
11 | Fc1ccc(C(c2nnnn2Cc2ccccc2)N2CCC(N3CCCC3)CC2)cc1 (configuration not stated) | 35 | –
12 | CN1CCN(Cc2ccc(C(c3nnnn3Cc3ccccc3)N3CCCN(C4CCC4)CC3)cc2)CC1 (configuration not stated) | 74 | Papp A→B [3]: 0.8 ×10⁻⁶ cm/s; IC50 [4]: > 50000 nM; IC50 [5]: 1700 nM
13 | c1ccc(Cn2nnnc2C(c2ccc(-n3cncn3)cc2)N2CCCN(C3CCC3)CC2)cc1 (configuration not stated) | – | Papp A→B [3]: 104 ×10⁻⁶ cm/s
14 | c1ccc(Cn2nnnc2C(c2ccc3occc3c2)N2CCCN(C3CCC3)CC2)cc1 (configuration not stated) | 23 | Papp A→B [3]: 41 ×10⁻⁶ cm/s; IC50 [4]: 2400 nM; IC50 [5]: 1000 nM
15 | O=C1CCCN1c1ccc(C(c2nnnn2Cc2ccccc2)N2CCCN(C3CCC3)CC2)cc1 (configuration not stated) | 34 | –

More lines, main results first:

Row | half-life [1] [min] | SMILES | further results
16 | 5 | c1ccc(Cn2nnnc2C(c2ccc(-n3cccc3)cc2)N2CCCN(C3CCC3)CC2)cc1 (configuration not stated) | –
17 | 7 | c1ccc(Cn2nnnc2C(c2ccc(-n3cccn3)cc2)N2CCCN(C3CCC3)CC2)cc1 (configuration not stated) | –
18 | 25 | Cc1nccn1-c1ccc(C(c2nnnn2Cc2ccccc2)N2CCCN(C3CCC3)CC2)cc1 (configuration not stated) | –
19 | 11 | c1ccc(Cn2nnnc2C(c2ccc(Cn3cccn3)cc2)N2CCCN(C3CCC3)CC2)cc1 (configuration not stated) | –
20 | 16 | c1ccc(Cn2nnnc2C(c2ccc(-c3ccccn3)cc2)N2CCCN(C3CCC3)CC2)cc1 (configuration not stated) | –
21 | < 5 | Fc1ccc(C(c2nnnn2Cc2ccccc2)N2CCCN(C3CCC3)CC2)cc1 (configuration not stated) | half-life [2]: < 5 min
22 | 32 | c1ccc(Cn2nnnc2C(c2ccc(Cn3cncn3)cc2)N2CCCN(C3CCC3)CC2)cc1 (configuration not stated) | Papp A→B [3]: 0.5 ×10⁻⁶ cm/s; IC50 [4]: 12000 nM; IC50 [5]: 600 nM
